Tests used:
Settings in all cases: 48 h
NOMO1 [1] = assay: AUC of viability dose-response curve (% viability x log10 dose units); higher = less sensitive
In short: (§1)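 In 1536-well plates, leukemia cells adapted to each medium (500 or 1000 cells/well) were exposed for 48 h at 37°C to library compounds in DMSO across 11 threefold doses, 47 μM down to 0.79 nM. Viability was read by CellTiter-Glo One luminescence and normalised per plate to DMSO and cell-free wells. A four-parameter log-logistic fit over log10 doses was integrated by trapezoidal rule. This yielded the area under the curve, with over-full-viability curves scaled and quality-control failures dropped.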

P12-Ichikawa [2] = assay: as above
In short: as §1

SEM cells [3] = assay: as above
In short: as §1

NOMO1 [4] = assay: cell viability relative to DMSO control; higher = less cytotoxic
In short: (§2)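 Cells were incubated for 48 h at 37°C before CellTiter-Glo One luminescence was read. The cells were NOMO1 or SEM (500 cells/well) or P12-Ichikawa (1000 cells/well) leukemia cells, adapted for at least four passages in each medium and seeded in 1536-well plates (5 μl). Dosing used library compounds in DMSO applied by pin over 11 threefold points, 47 μM to 0.79 nM. Viability is the per-plate percentage of DMSO wells, with cell-free wells as background.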

P12-Ichikawa [5] = assay: as above
In short: as §2

SEM cells [6] = assay: as above
In short: as §2

CN\1C(=O)/C(=C(\N=C1N2CCCC[S+]2([O-])=O)C(=O)NCC3=CC=C(F)C=C3)O
AUC of viability dose-response curve
Settings | NOMO1 [1] | P12-Ichikawa [2] | SEM cells [3]
HPLM + 10% dialyzed FBS | 441 | 444 | 471
RPMI 5 mM glucose + 10% FBS | 475 | 462 | 458
RPMI 5 mM glucose + 10% dialyzed FBS | 451 | 459 | 466

cell viability [%]
Settings | NOMO1 [4] | P12-Ichikawa [5] | SEM cells [6]
HPLM + 10% dialyzed FBS, 0.000781 µM | – | 124 | 98.9
HPLM + 10% dialyzed FBS, 0.00234 µM | – | 123 | 107
HPLM + 10% dialyzed FBS, 0.00702 µM | – | 115 | 104
HPLM + 10% dialyzed FBS, 0.0211 µM | – | 113 | 97.3
HPLM + 10% dialyzed FBS, 0.0632 µM | – | 118 | 98.5
HPLM + 10% dialyzed FBS, 0.19 µM | – | 122 | 96.6
HPLM + 10% dialyzed FBS, 0.569 µM | – | 119 | 96.9
HPLM + 10% dialyzed FBS, 1.71 µM | – | 111 | 107
HPLM + 10% dialyzed FBS, 5.12 µM | – | 107 | 98.3
HPLM + 10% dialyzed FBS, 15.4 µM | – | 109 | 109
HPLM + 10% dialyzed FBS, 46.1 µM | – | 103 | 91.2
RPMI 5 mM glucose + 10% FBS, 0.000781 µM | 113 | – | –
RPMI 5 mM glucose + 10% FBS, 0.00234 µM | 105 | – | –
RPMI 5 mM glucose + 10% FBS, 0.00702 µM | 116 | – | –
RPMI 5 mM glucose + 10% FBS, 0.0211 µM | 124 | – | –
RPMI 5 mM glucose + 10% FBS, 0.0632 µM | 116 | – | –
RPMI 5 mM glucose + 10% FBS, 0.19 µM | 107 | – | –
RPMI 5 mM glucose + 10% FBS, 0.569 µM | 112 | – | –
RPMI 5 mM glucose + 10% FBS, 1.71 µM | 123 | – | –
RPMI 5 mM glucose + 10% FBS, 5.12 µM | 115 | – | –
RPMI 5 mM glucose + 10% FBS, 15.4 µM | 113 | – | –
RPMI 5 mM glucose + 10% FBS, 46.1 µM | 106 | – | –
RPMI 5 mM glucose + 10% dialyzed FBS, 0.000781 µM | 123 | 124 | 104
RPMI 5 mM glucose + 10% dialyzed FBS, 0.00234 µM | 116 | 116 | 95.1
RPMI 5 mM glucose + 10% dialyzed FBS, 0.00702 µM | 119 | 119 | 103
RPMI 5 mM glucose + 10% dialyzed FBS, 0.0211 µM | 123 | 126 | 116
RPMI 5 mM glucose + 10% dialyzed FBS, 0.0632 µM | 111 | 127 | 121
RPMI 5 mM glucose + 10% dialyzed FBS, 0.19 µM | 119 | 117 | 97.8
RPMI 5 mM glucose + 10% dialyzed FBS, 0.569 µM | 113 | 123 | 107
RPMI 5 mM glucose + 10% dialyzed FBS, 1.71 µM | 107 | 120 | 111
RPMI 5 mM glucose + 10% dialyzed FBS, 5.12 µM | 118 | 99.7 | 85.5
RPMI 5 mM glucose + 10% dialyzed FBS, 15.4 µM | 105 | 109 | 111
RPMI 5 mM glucose + 10% dialyzed FBS, 46.1 µM | 99.2 | 102 | 95.3

Cc1cc(OCCCc2c(C(=O)O)n(Cc3cccnc3)c3c(-c4c(COc5ccc(N6CCN([S+](C)(=O)[O-])CC6)cc5)nn(C)c4C)cccc23)cc(C)c1Cl
AUC of viability dose-response curve
Settings | NOMO1 [1] | P12-Ichikawa [2] | SEM cells [3]
HPLM + 10% dialyzed FBS | 452 | 452 | 441
RPMI 5 mM glucose + 10% FBS | 418 | 441 | 441
RPMI 5 mM glucose + 10% dialyzed FBS | 443 | 446 | 439

cell viability [%]
Settings | NOMO1 [4] | P12-Ichikawa [5] | SEM cells [6]
HPLM + 10% dialyzed FBS, 0.000781 µM | 92.9 | 99.6 | 102
HPLM + 10% dialyzed FBS, 0.00234 µM | 112 | 100 | 94.1
HPLM + 10% dialyzed FBS, 0.00702 µM | 98.3 | 100 | 105
HPLM + 10% dialyzed FBS, 0.0211 µM | 107 | 97 | 101
HPLM + 10% dialyzed FBS, 0.0632 µM | 100 | 99.8 | 89.4
HPLM + 10% dialyzed FBS, 0.19 µM | 104 | 97.4 | 91.8
HPLM + 10% dialyzed FBS, 0.569 µM | 100 | 92.9 | 100
HPLM + 10% dialyzed FBS, 1.71 µM | 92.7 | 96.1 | 93.3
HPLM + 10% dialyzed FBS, 5.12 µM | 92.1 | 86.9 | 84.9
HPLM + 10% dialyzed FBS, 15.4 µM | 87 | 88.1 | 81.5
HPLM + 10% dialyzed FBS, 46.1 µM | 71.8 | 80.4 | 62.2
RPMI 5 mM glucose + 10% FBS, 0.000781 µM | 86 | 92.4 | 112
RPMI 5 mM glucose + 10% FBS, 0.00234 µM | 87.7 | 102 | 116
RPMI 5 mM glucose + 10% FBS, 0.00702 µM | 94.8 | 96.6 | 133
RPMI 5 mM glucose + 10% FBS, 0.0211 µM | 89.8 | 102 | 106
RPMI 5 mM glucose + 10% FBS, 0.0632 µM | 95.6 | 101 | 105
RPMI 5 mM glucose + 10% FBS, 0.19 µM | 90.8 | 95.6 | 113
RPMI 5 mM glucose + 10% FBS, 0.569 µM | 87.7 | 85.9 | 112
RPMI 5 mM glucose + 10% FBS, 1.71 µM | 91.5 | 89.3 | 96.9
RPMI 5 mM glucose + 10% FBS, 5.12 µM | 82.4 | 86.2 | 111
RPMI 5 mM glucose + 10% FBS, 15.4 µM | 78.5 | 88.3 | 91.2
RPMI 5 mM glucose + 10% FBS, 46.1 µM | 74.9 | 77.1 | 67.4
RPMI 5 mM glucose + 10% dialyzed FBS, 0.000781 µM | 92.4 | 91.3 | 86.7
RPMI 5 mM glucose + 10% dialyzed FBS, 0.00234 µM | 90.5 | 95 | 94.5
RPMI 5 mM glucose + 10% dialyzed FBS, 0.00702 µM | 98.1 | 99.3 | 96.1
RPMI 5 mM glucose + 10% dialyzed FBS, 0.0211 µM | 98.4 | 97.5 | 104
RPMI 5 mM glucose + 10% dialyzed FBS, 0.0632 µM | 95.8 | 102 | 102
RPMI 5 mM glucose + 10% dialyzed FBS, 0.19 µM | 86.1 | 98.4 | 110
RPMI 5 mM glucose + 10% dialyzed FBS, 0.569 µM | 87.7 | 90.9 | 90.7
RPMI 5 mM glucose + 10% dialyzed FBS, 1.71 µM | 98.2 | 93.5 | 91.7
RPMI 5 mM glucose + 10% dialyzed FBS, 5.12 µM | 96.7 | 93.1 | 89.8
RPMI 5 mM glucose + 10% dialyzed FBS, 15.4 µM | 91.2 | 78.2 | 76.4
RPMI 5 mM glucose + 10% dialyzed FBS, 46.1 µM | 78.6 | 82.9 | 53.1
